Test results taken from publication PMC7794297.

Assay: Solubility under DCL conditions
Assay type: physicochemical
Conditions: aqueous buffer; basic pH and 2.5% (v/v) DMSO
From the text: reaction of compound 3 to (3)2 in the presence of selenocystine and DMSO. The accelerating role of DMSO wa s disca rded by running control experim ents containing up to 20% (v/v) DMSO, which is much larger than the amount of this co-solvent used in our standard conditions (2.5% (v/v) DMSO).
1) All the amino acids shown in Figure 3 have D-stereochemistry. I guess this is an error, please amend that. The same issue states for the structures in Figure 1.
Thank you. It has been corrected.
2) For every mention to % of a reagent, especially in the methods part, it should be clearly stated if this is volume, weight of molar percent, and with respect to what.
Thank you. It has been included.
3) Some of the disulfides formed in the libraries (i.e. (4)2) are expected to be poorly soluble in buffered water. […] When quantifying species in a mixture, solubility problems must be carefully […]
1.The main problem of the MS is that the authors only describe the rate enhancement by comparing if the reactions have reached equilibrium after 24 h or 96 h, as characterised by HPLC. It is shown for different ratios of the catalyst, but it doesn’t provide any quantitative measure of the rate acceleration. […] The authors should provide quantitative characterisation of the rate constants, starting with a simple homodimerisation of thiols, as it is done in ref. 15. […]

c1ccc(SSc2ccccc2)cc1 [(4)2]
solubility: ≤ 2000 µM
